In patent US9907847B2, “Pyrrolopyrimidines as therapeutic agents for the treatment of diseases” (GlaxoSmithKline LLC, priority 2012, dated 2018):
Structures can show the parent of a compound that is named as a salt.

Experiments:
[1] = test system: IFN-α; test: Induction of interferon-α using fresh human whole blood (WB); type: cell-based; conditions: three donors, overnight incubation, response as % of 2 μM resiquimod control, read-out: mean pEC50 for IFN-α (converted)
Experimental: (§1) Assay for the Induction of Interferon-[…] and TNF-[…] Using Fresh Human Whole Blood (WB)
(§2) Compounds were prepared at 100× required concentration in DMSO in flat-bottom microtitre plates at a volume of 1.5 μL. Columns 1-10 contained a 1 in 4 serial dilution of the test compound. Included on each plate was a serial dilution of the TLR7/8 agonist resiquimod as a standard and Column 11 contained 1.5 μl of 200 μM resiquimod (giving a 2 μM final concentration, used to define the approximate maximal response to resiquimod). Each compound was assayed in duplicate for each donor.
(§3) Blood samples from three human donors were collected into sodium heparin (10 U/ml). 150 μl of whole Blood was dispensed into Col 1 to 11 of assay plates containing 1.5 μl of test compound or standard in DMSO. Plates were placed in an incubator overnight (37° C., 95% air, 5% CO2). Following the overnight incubation, plates were removed from the incubator & mixed on an orbital shaker for approximately 1 minute. 100 μl of 0.9% saline was added to each well and the plates mixed again on an orbital shaker. Plates were then centrifuged (2500 rpm, 10 mins), after which a sample of plasma was removed using a Biomek FX and assayed for both IFN-α and TNF-α using the MSD (Mesoscale Discovery) electrochemiluminescence assay platform. The IFN-α assay was carried out similarly to that described above. The TNF-α assay was carried out as per kit instructions (Cat No K111BHB).
(§4) Cytokine released was expressed as a percentage of the 2 μM resiquimod control (column 11). This percentage was plotted against compound concentration and the pEC50 for the response determined by non-linear least squares curve fitting. For the IFN-α responses, generally a 4 parameter logistic model was selected. For the TNF-α responses where a clear maximum response was obtained (i.e. a well defined plateau in the response was observed) then a 4 parameter model was generally used. If the upper asymptote of the curve wasn't well defined then the curve fitting was generally constrained to a maximal response of 100% (i.e. to the response to 2 μM resiquimod) or to the response of the highest concentration tested if this was greater than the resiquimod response. Some curves were bell shaped for one or both cytokines and the cytokine data on the down slope of the bell shaped response (i.e. concentrations above those giving the maximal response) were generally excluded from the fit, usually with the exception of the concentration immediately above the peak response. Curve fitting thus concentrated on the up slope of the dose response curve.

[2] = test system: TNF-α; test: Induction of TNF-α using fresh human whole blood (WB); type: cell-based; conditions: three donors, overnight incubation, response as % of 2 μM resiquimod control, read-out: mean pEC50 for TNF-α (converted)
Experimental: as §1, §2, §3, §4

CCCCc1nc(N)c2[nH]c(C)c(CCCCCN3CC[C@H](F)C3)c2n1 [Example 40, (S)-2-Butyl-7-(5-(3-fluoropyrrolidin-1-yl)pentyl)-6-methyl-5H-pyrrolo[3,2-d]pyrimidin-4-amine]
EC50 [1]: ≤ 5.01 µM
EC50 [2]: ≥ 5.01 µM

COCCc1nc(N)c2[nH]cc(CCCCCN3CC[C@H](F)C3)c2n1 [Example 27, (S)-7-(5-(3-Fluoropyrrolidin-1-yl)pentyl)-2-(2-methoxyethyl)-5H-pyrrolo[3,2-d]pyrimidin-4-amine formate]
EC50 [1]: ≤ 5.01 µM
EC50 [2]: ≥ 5.01 µM

CCCCc1nc(N)c2[nH]cc(CCCCCCN3CCC(F)CC3)c2n1 [Example 31, 2-Butyl-7-(6-(4-fluoropiperidin-1-yl)hexyl)-5H-pyrrolo[3,2-d]pyrimidin-4-amine]
EC50 [1]: ≤ 5.01 µM
EC50 [2]: ≥ 5.01 µM

CCCCc1nc(N)c2[nH]cc(CCCCCN3CC[C@H](O)C3)c2n1 [Example 28, (S)-1-(5-(4-Amino-2-butyl-5H-pyrrolo[3,2-d]pyrimidin-7-yl)pentyl)pyrrolidin-3-ol]
EC50 [1]: ≤ 5.01 µM
EC50 [2]: ≥ 5.01 µM

CCCCc1nc(N)c2[nH]cc(CCCCCCN3CC[C@H](F)C3)c2n1 [Example 33, (S)-2-Butyl-7-(6-(3-fluoropyrrolidin-1-yl)hexyl)-5H-pyrrolo[3,2-d]pyrimidin-4-amine]
EC50 [1]: ≤ 5.01 µM
EC50 [2]: ≥ 5.01 µM

COCCc1nc(N)c2[nH]cc(CCCCCN3CCCC3)c2n1 [Example 43, 2-(2-Methoxyethyl)-7-(5-(pyrrolidin-1-yl)pentyl)-5H-pyrrolo[3,2-d]pyrimidin-4-amine]
EC50 [1]: ≤ 5.01 µM
EC50 [2]: ≥ 5.01 µM

COCCc1nc(N)c2[nH]cc(CCCCCN3CC[C@@H](F)C3)c2n1 [Example 26, (R)-7-(5-(3-Fluoropyrrolidin-1-yl)pentyl)-2-(2-methoxyethyl)-5H-pyrrolo[3,2-d]pyrimidin-4-amine formate]
EC50 [1]: ≤ 5.01 µM
EC50 [2]: ≥ 5.01 µM

CCCCc1nc(N)c2[nH]c(C)c(CCCCCN3CC[C@@H](F)C3)c2n1 [Example 41, (R)-2-Butyl-7-(5-(3-fluoropyrrolidin-1-yl)pentyl)-6-methyl-5H-pyrrolo[3,2-d]pyrimidin-4-amine]
EC50 [1]: ≤ 5.01 µM
EC50 [2]: ≥ 5.01 µM
